Test results from patent publication US11638689B2, “Deep topical systemic nitric oxide therapy apparatus and method” (SYK Technologies LLC, priority 2013, dated 2023).

Tested on: bacteria on a surface, such as a person's skin
Test: Nitric oxide dose required to kill bacteria on a surface
Settings: ppm of nitric oxide

## [N]=O [nitric oxide]
  dose required to kill bacteria on a surface: ≥ 320 ppm
